Measured values from PMC2709817 (Biochemistry, 2009).
Read-outs that look alike come from different tables or passages of the source.

Legend:
Format in all cases: biochemical
[1] = molecular target: T1, LpxC (Rhizobium johnstonii, UniProt Q1ME43); assay: percent inhibition of purified LpxC ortholog at […]; settings: read-out: 1-68Aa
T1 sequence (Q1ME43 1-318): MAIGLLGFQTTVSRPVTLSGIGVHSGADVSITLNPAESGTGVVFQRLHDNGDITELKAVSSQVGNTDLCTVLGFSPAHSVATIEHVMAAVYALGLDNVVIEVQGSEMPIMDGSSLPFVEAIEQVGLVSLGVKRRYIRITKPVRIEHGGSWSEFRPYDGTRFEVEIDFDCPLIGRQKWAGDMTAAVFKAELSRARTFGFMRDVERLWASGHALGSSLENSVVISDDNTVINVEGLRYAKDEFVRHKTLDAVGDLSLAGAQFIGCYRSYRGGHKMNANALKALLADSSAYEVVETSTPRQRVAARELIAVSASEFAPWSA

[2] = molecular target: T2, UDP-3-O-(R-3-hydroxyacyl)-N-acetylglucosamine deacetylase LpxC (Escherichia coli, UniProt P0A725); assay: percent inhibition of purified LpxC at […]; settings: read-out: 1-68Aa
T2 sequence (P0A725 1-305): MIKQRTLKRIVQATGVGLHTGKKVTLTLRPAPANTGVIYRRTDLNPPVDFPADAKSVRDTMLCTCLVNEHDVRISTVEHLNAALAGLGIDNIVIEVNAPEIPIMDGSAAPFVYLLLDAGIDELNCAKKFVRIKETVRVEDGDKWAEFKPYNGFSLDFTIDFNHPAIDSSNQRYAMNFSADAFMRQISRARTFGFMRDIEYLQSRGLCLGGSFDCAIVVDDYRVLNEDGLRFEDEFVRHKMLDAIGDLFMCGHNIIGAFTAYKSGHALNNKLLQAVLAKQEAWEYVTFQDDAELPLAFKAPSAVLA

[3] = molecular target: T3, LpxC (Helicobacter pylori, UniProt O25692); assay: percent inhibition of purified LpxC ortholog at […]; settings: read-out: 1-68Aa
T3 sequence (O25692 1-295): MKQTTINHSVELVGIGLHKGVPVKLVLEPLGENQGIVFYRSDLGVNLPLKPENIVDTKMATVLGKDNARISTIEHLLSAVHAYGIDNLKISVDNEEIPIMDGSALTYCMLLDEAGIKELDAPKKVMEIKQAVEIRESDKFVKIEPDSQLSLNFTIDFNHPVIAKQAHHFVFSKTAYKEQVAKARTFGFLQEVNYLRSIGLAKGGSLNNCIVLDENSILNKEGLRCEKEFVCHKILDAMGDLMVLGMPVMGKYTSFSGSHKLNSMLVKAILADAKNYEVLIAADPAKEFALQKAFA

[4] = molecular target: T3, LpxC; assay: percent inhibition of purified LpxC ortholog at […]; settings: read-out: 1-68A

Row | Structure (SMILES) | inhibition at 50 µM [1] [%] | inhibition at 50 µM [2] [%] | inhibition at 50 µM [3] [%] | inhibition at 50 µM [4] [%]
1 | O=c1ccn([C@@H]2O[C@H](CON=Cc3ccc(O)c(O)c3)[C@@H](O)[C@H]2O)c(=O)[nH]1 [1-68Aa, 3,4-Dihydroxy-benzaldehyde O-[5-(2,4-dioxo-3,4-dihydro-2H-pyrimidin-1-yl)-3,4-dihydroxy-tetrahydro-furan-2-ylmethyl]-oxime] | 49 | 60 | 41 | –
2 | O=c1ccn([C@@H]2O[C@H](CON=Cc3ccc(O)c(O)c3O)[C@@H](O)[C@H]2O)c(=O)[nH]1 [1-68A] | – | – | – | 21
